pIC50: −log10 of the molar value.
System: not listed separately
Assay: in vitro
Conditions: human, Caco-2, pH 7.4
Outline: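 Compounds at 10 μM in HBSS pH 7.4 (0.1–0.3% DMSO) were dosed on Caco-2 monolayers, apical-to-basolateral and basolateral-to-apical, for 90 min at 37 °C, in duplicate. Monolayer integrity was checked by TEER and lucifer yellow flux, read by fluorescence at 485/535 nm. Compound was quantified by LC-MS/MS and Papp calculated.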

SMILES	Papp A→B at 90 min, 10 μM [×10⁻⁶ cm/s]	Papp B→A at 90 min, 10 μM [×10⁻⁶ cm/s]	efflux ratio at 90 min, 10 μM
CCOCc1c([C@H]2CCC[C@@H](c3ncccc3Cl)N2C)nc2cccc(N3CCN(C)CC3)n12 [Compound I-117]	10 to 30	10 to 30	0.1 to 10
Cc1c([C@@H]2CCC[C@H](c3ncccc3Cl)N2)nc2cccc(N3CCN(C)CC3)n12 (stereo in doubt) [Compound I-193]	10 to 30	10 to 30	0.1 to 10
CN1CCN(c2cccc3nc([C@H]4CCC[C@@H](c5ncccc5C(F)(F)F)N4C)cn23)CC1 [Compound I-80]	0.1 to 10	0.1 to 10	0.1 to 10
Cc1cccnc1[C@@H]1CCC[C@H](c2nc3ccccn3c2N2CCN(C)CC2)N1 [Compound I-154]	0.1 to 10	10 to 30	0.1 to 10
Cc1cccnc1[C@H]1CCC[C@@H](c2nc3ccccn3c2CCCN2CCN(C)CC2)N1C (stereo in doubt) [Compound I-25]	0.1 to 10	10 to 30	> 30
CN1C2CCC1CN(c1cccc3nc([C@H]4CCC[C@@H](c5ncccc5Cl)N4)cn13)C2 [Compound I-181]	0.1 to 10	10 to 30	0.1 to 10
CCN1CCN(c2cccc3nc([C@H]4CCC[C@@H](c5ncccc5C)N4C)cn23)CC1 [Compound I-13]	0.1 to 10	10 to 30	0.1 to 10
Cc1cccnc1[C@@H]1CCC[C@H](c2nc3cccc(N4CC5CCC(C4)N5C)n3c2Cl)N1C [Compound I-137]	0.1 to 10	0.1 to 10	0.1 to 10

System: not listed separately
Assay: Fraction of drug unbound to brain proteins, mouse
Format: in vitro ADME
Conditions: Mouse brain proteins (Table 10); read-out: Fu (b) %

SMILES	fraction unbound
CCOCc1c([C@H]2CCC[C@@H](c3ncccc3Cl)N2C)nc2cccc(N3CCN(C)CC3)n12 [Compound I-117]	0.006
Cc1c([C@@H]2CCC[C@H](c3ncccc3Cl)N2)nc2cccc(N3CCN(C)CC3)n12 (stereo in doubt) [Compound I-193]	0.004

Biological target: CXCR-4 transfected U87 cell line (U87.CXCR4) (Homo sapiens (Human), UniProt P61073)
Assay: Intracellular CXCL-12-induced calcium mobilization assay (FLIPR)
Format: cell-based
Conditions: U87.CXCR4 cells, CXCL-12 25-50 ng/mL; read-out: IC50 CXCL-12 Ca2+ flux U87.CXCR4+
Outline: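 U87.CXCR4 cells were seeded at 20,000 per well, cultured 12 hours, then loaded with 4 μM Fluo-2 AM for 45 min at 37° C. in HBSS with 20 mM HEPES and 0.2% BSA, pH 7.4. Calcium flux triggered by CXCL-12 (25-50 ng/mL) was tracked over time by FLIPR fluorescence at 37° C.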

Chain of CXCR-4 transfected U87 cell line (U87.CXCR4) (P61073 whole entry): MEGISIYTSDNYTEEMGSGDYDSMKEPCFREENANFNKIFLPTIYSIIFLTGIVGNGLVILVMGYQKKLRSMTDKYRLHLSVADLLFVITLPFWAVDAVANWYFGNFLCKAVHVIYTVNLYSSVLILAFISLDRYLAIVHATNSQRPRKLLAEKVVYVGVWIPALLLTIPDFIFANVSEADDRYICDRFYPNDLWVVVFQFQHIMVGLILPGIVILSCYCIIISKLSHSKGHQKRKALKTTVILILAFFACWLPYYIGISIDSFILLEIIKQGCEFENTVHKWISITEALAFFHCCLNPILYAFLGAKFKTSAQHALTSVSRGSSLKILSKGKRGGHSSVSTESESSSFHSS

SMILES	pIC50
CCOCc1c([C@H]2CCC[C@@H](c3ncccc3Cl)N2C)nc2cccc(N3CCN(C)CC3)n12 [Compound I-117]	7.00 to 11.00
Cc1c([C@@H]2CCC[C@H](c3ncccc3Cl)N2)nc2cccc(N3CCN(C)CC3)n12 (stereo in doubt) [Compound I-193]	7.00 to 11.00
CN1CCN(c2cccc3nc([C@H]4CCC[C@@H](c5ncccc5C(F)(F)F)N4C)cn23)CC1 [Compound I-80]	6.00 to 7.00
Cc1cccnc1[C@@H]1CCC[C@H](c2nc3ccccn3c2N2CCN(C)CC2)N1 [Compound I-154]	≤ 6.00
Cc1cccnc1[C@H]1CCC[C@@H](c2nc3ccccn3c2CCCN2CCN(C)CC2)N1C (stereo in doubt) [Compound I-25]	7.00 to 11.00
CN1C2CCC1CN(c1cccc3nc([C@H]4CCC[C@@H](c5ncccc5Cl)N4)cn13)C2 [Compound I-181]	7.00 to 11.00
CCN1CCN(c2cccc3nc([C@H]4CCC[C@@H](c5ncccc5C)N4C)cn23)CC1 [Compound I-13]	7.00 to 11.00
Cc1cccnc1[C@@H]1CCC[C@H](c2nc3cccc(N4CC5CCC(C4)N5C)n3c2Cl)N1C [Compound I-137]	6.00 to 7.00

Biological target: Jurkat cells expressing CXCR4 (Homo sapiens (Human), UniProt P61073)
Assay: Chemokine (CXCL12-AF647) binding inhibition assay
Conditions: CXCL12-AF647 25 ng/mL, read-out: IC50 CXCL-12 binding Jurkat
Outline: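 Cells in HBSS, 20 mM HEPES, 0.2% BSA, pH 7.4, preincubated 15 min at room temperature with compound, then 25 ng/mL CXCL12-AF647 for 30 min. After washing and paraformaldehyde fixation, bound ligand read by flow cytometry; percent inhibition calculated from MFI relative to unlabeled and ligand-only controls.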

Chain of Jurkat cells expressing CXCR4 (P61073 whole entry): as above

SMILES	pIC50
CCOCc1c([C@H]2CCC[C@@H](c3ncccc3Cl)N2C)nc2cccc(N3CCN(C)CC3)n12 [Compound I-117]	7.00 to 11.00
Cc1c([C@@H]2CCC[C@H](c3ncccc3Cl)N2)nc2cccc(N3CCN(C)CC3)n12 (stereo in doubt) [Compound I-193]	7.00 to 11.00
CN1CCN(c2cccc3nc([C@H]4CCC[C@@H](c5ncccc5C(F)(F)F)N4C)cn23)CC1 [Compound I-80]	7.00 to 11.00
Cc1cccnc1[C@@H]1CCC[C@H](c2nc3ccccn3c2N2CCN(C)CC2)N1 [Compound I-154]	6.00 to 7.00
Cc1cccnc1[C@H]1CCC[C@@H](c2nc3ccccn3c2CCCN2CCN(C)CC2)N1C (stereo in doubt) [Compound I-25]	7.00 to 11.00
CN1C2CCC1CN(c1cccc3nc([C@H]4CCC[C@@H](c5ncccc5Cl)N4)cn13)C2 [Compound I-181]	7.00 to 11.00
CCN1CCN(c2cccc3nc([C@H]4CCC[C@@H](c5ncccc5C)N4C)cn23)CC1 [Compound I-13]	7.00 to 11.00
Cc1cccnc1[C@@H]1CCC[C@H](c2nc3cccc(N4CC5CCC(C4)N5C)n3c2Cl)N1C [Compound I-137]	7.00 to 11.00

System: not listed separately
Assay: Mouse brain uptake assay, 0-24 h, 4 time points
Format: in vivo
Conditions: male, CD1, Mouse brain, 3 mg/kg IV, 4 time points, read-out: AUClast (b)
Protocol: The study design (9 animals) consisted of administrating the drug (IV: 3 mg/kg (5 mL/kg) via tail vein injection) and collecting samples at terminal bleeding for plasma and brain at 0.083, 0.5 and 1 h. The blood collection was performed as follows: the animal was restrained manually and approximately 150 μL blood/time point was collected into a dipotassium EDTA tube via retro orbital puncture under anesthesia with isoflurane. The blood sample was put on ice and centrifuged to obtain a plasma sample (2000 g, 5 min under 4° C.) within 15 minutes. The brain collection was performed as follows: a mid-line incision was made in the animal's scalp and the skin was retracted. Using small bone cutters and rongeurs, the skull overlying the brain was removed. The brain was removed using a spatula and the brain rinsed with cold saline. The brain was placed in screw-top tubes, and the tubes were stored at −70° C. until analysis. The IV dosing solution was prepared in 50 mM citrate buffer (pH 4.0) at 0.6 mg/mL.
An aliquot of 30 μL sample was added to 150 μL MeCN containing 50 ng/mL IS (Dexamethasone). The mixture was vortexed for 5 min and centrifuged at 14,000 rpm for 5 min. An aliquot of 5 μL supernatant was injected for LC-MS/MS analysis.
An aliquot of 30 μL brain homogenate (brain:PBS=1:3, w/v) sample was added to 150 μL IS in ACN (Dexamethasone, 50 ng/mL). The mixture was vortexed for 5 min and centrifuged at 14,000 rpm for 5 min. An aliquot of 5 μL supernatant was injected for LC-MS/MS analysis.
The sample analysis was performed on LCMS/MS-003 (API4000, triple quadruple) under the following conditions: positive ion, ESI, MRM detection using dexamethasone as internal standard. HPLC conditions: mobile phase A: H2O (0.025% formic acid (FA) with 1 mM NH4OAc); mobile phase B: MeOH (0.025% FA with 1 mM NH4OAc) on Waters X-Bridge C18 (2.1×50 mm, 2.5 μm) column at 60° C.
A similar experiment was performed with 4 time points taken from 0-24 h.

SMILES	AUC(0-t) [ng·h/mL]
CCOCc1c([C@H]2CCC[C@@H](c3ncccc3Cl)N2C)nc2cccc(N3CCN(C)CC3)n12 [Compound I-117]	32300
Cc1c([C@@H]2CCC[C@H](c3ncccc3Cl)N2)nc2cccc(N3CCN(C)CC3)n12 (stereo in doubt) [Compound I-193]	13700

Same assay, conditions: male, CD1, Mouse plasma, 3 mg/kg IV, 4 time points, read-out: AUClast (p)

SMILES	AUC(0-t) [ng·h/mL]
CCOCc1c([C@H]2CCC[C@@H](c3ncccc3Cl)N2C)nc2cccc(N3CCN(C)CC3)n12 [Compound I-117]	1480
Cc1c([C@@H]2CCC[C@H](c3ncccc3Cl)N2)nc2cccc(N3CCN(C)CC3)n12 (stereo in doubt) [Compound I-193]	2130

Same assay, conditions: male, CD1, brain and plasma, Mouse, 3 mg/kg IV, 4 time points

SMILES	Kp	Kp uu
CCOCc1c([C@H]2CCC[C@@H](c3ncccc3Cl)N2C)nc2cccc(N3CCN(C)CC3)n12 [Compound I-117]	21.8	3.35
Cc1c([C@@H]2CCC[C@H](c3ncccc3Cl)N2)nc2cccc(N3CCN(C)CC3)n12 (stereo in doubt) [Compound I-193]	6.41	0.54

Same assay, conditions: male, CD1, plasma, Mouse, 3 mg/kg IV, 4 time points

SMILES	clearance [mL/min/kg]
CCOCc1c([C@H]2CCC[C@@H](c3ncccc3Cl)N2C)nc2cccc(N3CCN(C)CC3)n12 [Compound I-117]	33.5
Cc1c([C@@H]2CCC[C@H](c3ncccc3Cl)N2)nc2cccc(N3CCN(C)CC3)n12 (stereo in doubt) [Compound I-193]	22

Same assay, conditions: male, CD1, plasma, Mouse, 3 mg/kg IV, 4 time points, read-out: t½ (converted)

SMILES	half-life [h]
CCOCc1c([C@H]2CCC[C@@H](c3ncccc3Cl)N2C)nc2cccc(N3CCN(C)CC3)n12 [Compound I-117]	3.56
Cc1c([C@@H]2CCC[C@H](c3ncccc3Cl)N2)nc2cccc(N3CCN(C)CC3)n12 (stereo in doubt) [Compound I-193]	6.42

System: not listed separately
Assay: Fraction of drug unbound to plasma proteins, mouse
Format: in vitro ADME
Conditions: Mouse plasma proteins (Table 10); read-out: Fu (p) %

SMILES	fraction unbound
CCOCc1c([C@H]2CCC[C@@H](c3ncccc3Cl)N2C)nc2cccc(N3CCN(C)CC3)n12 [Compound I-117]	0.039
Cc1c([C@@H]2CCC[C@H](c3ncccc3Cl)N2)nc2cccc(N3CCN(C)CC3)n12 (stereo in doubt) [Compound I-193]	0.047
